Activity calls are given as the source filed them.
Assays:
[1] = test system: Streptococcus sp. 'group A'; assay: Streptococcus pyogenes SK(-)GAS viability under kanamycin – luminescence, BacTiterGlo, confirmation, counter-screen for streptokinase expression inhibitor project, dose response (AID 1900); format: functional, organism-based
[2] = test system: Streptococcus; assay: Luminescence Microorganism-Based Dose Response Follow up to Identify Compounds Cytotoxic to Streptococcus. [Related pubchem assays: 1677 (Project Summary), 1915, 1914, 1902 (Retest at Dose), 1900 (Counter Screen), 1662 (Primary HTS)]; format: functional, organism-based
[3] = biological target: T1, Streptokinase A (Streptococcus pyogenes serotype M1, UniProt P10520); assay: viability-normalized secreted streptokinase activity reduction – plasminogen activation absorbance, OD405, dose response (AID 1914); format: functional, Streptococcus pyogenes M1 GAS;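 further: secreted streptokinase activity via plasminogen activation per viability signal from cell pellet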
T1 sequence (P10520 whole entry): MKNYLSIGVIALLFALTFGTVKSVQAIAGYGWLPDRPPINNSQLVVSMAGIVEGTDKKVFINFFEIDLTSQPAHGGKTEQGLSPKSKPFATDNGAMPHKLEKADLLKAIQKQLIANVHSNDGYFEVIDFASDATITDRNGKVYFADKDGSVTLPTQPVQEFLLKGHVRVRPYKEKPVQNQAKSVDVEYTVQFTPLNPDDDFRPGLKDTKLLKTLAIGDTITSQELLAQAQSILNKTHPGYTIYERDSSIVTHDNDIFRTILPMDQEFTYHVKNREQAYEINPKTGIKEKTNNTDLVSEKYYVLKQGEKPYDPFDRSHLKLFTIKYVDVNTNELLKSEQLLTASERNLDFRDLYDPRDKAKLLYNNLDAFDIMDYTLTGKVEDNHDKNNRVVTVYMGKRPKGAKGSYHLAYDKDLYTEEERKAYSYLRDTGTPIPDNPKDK

[4] = test system: Streptococcus; assay: GAS UMAA2166 growth inhibition – luminescence, BacTiterGlo, counter-screen for streptokinase expression inhibitor project, dose response (AID 1915); format: functional, organism-based;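 further: potency for reduction of bacterial viability or growth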
[5] = biological target: Mothers against decapentaplegic homolog 3 (Homo sapiens, UniProt P84022); assay: blockers of Smad3 complex formation in lysate – cell lysate, secondary confirmation, chemiluminescent ELISA, HEK293 lysate, dose response (AID 1058); format: functional
Sequence of Mothers against decapentaplegic homolog 3 (P84022 whole entry): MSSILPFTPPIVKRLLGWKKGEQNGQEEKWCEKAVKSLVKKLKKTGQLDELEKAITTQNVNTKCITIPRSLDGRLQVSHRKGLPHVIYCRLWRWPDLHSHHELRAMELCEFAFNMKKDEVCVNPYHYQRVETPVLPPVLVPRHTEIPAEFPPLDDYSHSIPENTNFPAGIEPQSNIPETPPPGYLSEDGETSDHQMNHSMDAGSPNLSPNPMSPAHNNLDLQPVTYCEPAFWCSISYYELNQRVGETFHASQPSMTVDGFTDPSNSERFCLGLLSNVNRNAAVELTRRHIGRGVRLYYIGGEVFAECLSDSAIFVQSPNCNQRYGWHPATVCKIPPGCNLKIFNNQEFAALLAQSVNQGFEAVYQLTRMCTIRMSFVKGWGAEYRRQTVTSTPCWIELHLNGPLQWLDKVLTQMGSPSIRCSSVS

[6] = biological target: G2/mitotic-specific cyclin-B1 (Homo sapiens, UniProt P14635); assay: Counterscreen assay for inhibitors of Wee1 degradation: dose response cell-based assay to identify inhibitors of cyclin B degradation. [Related pubchem assays: 1410, 1321 ]; format: functional
Sequence of G2/mitotic-specific cyclin-B1 (P14635 whole entry): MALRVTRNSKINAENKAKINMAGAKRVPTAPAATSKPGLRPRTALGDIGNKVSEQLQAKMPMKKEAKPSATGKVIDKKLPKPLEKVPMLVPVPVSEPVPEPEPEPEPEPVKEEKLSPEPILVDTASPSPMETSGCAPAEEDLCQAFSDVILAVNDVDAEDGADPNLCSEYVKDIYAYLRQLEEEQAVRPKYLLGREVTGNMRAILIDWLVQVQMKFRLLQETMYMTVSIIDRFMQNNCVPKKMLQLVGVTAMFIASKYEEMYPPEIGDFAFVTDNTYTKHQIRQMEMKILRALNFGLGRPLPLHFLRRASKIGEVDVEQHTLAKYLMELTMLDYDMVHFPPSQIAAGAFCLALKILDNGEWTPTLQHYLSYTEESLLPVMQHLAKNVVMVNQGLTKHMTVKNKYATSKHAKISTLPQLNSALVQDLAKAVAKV

[7] = biological target: Wee1-like protein kinase (Homo sapiens, UniProt P30291); assay: Dose Response Cell-based Assay for Inhibitors of Wee1 Degradation. [Related pubchem assays: 1410, 1321 ]; format: functional
Sequence of Wee1-like protein kinase (P30291 whole entry): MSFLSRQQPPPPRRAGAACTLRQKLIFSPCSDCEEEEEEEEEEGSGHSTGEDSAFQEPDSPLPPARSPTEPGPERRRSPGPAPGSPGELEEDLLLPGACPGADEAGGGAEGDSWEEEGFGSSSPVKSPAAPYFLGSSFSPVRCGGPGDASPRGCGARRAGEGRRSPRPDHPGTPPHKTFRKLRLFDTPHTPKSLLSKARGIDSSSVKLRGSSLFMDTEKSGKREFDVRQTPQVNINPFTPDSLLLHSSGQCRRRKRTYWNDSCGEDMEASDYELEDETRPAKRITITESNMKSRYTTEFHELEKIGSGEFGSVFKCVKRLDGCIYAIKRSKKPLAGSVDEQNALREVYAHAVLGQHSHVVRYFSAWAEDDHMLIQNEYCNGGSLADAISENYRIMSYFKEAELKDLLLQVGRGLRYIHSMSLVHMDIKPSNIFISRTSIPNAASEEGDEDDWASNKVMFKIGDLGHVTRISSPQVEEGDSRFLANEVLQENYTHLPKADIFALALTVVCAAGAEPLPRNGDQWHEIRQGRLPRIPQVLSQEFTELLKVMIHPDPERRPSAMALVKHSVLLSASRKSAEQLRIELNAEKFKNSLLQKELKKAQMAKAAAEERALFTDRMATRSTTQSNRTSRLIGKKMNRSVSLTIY

[8] = A cytotoxicity screen of small molecule inhibitors of the PhoP region in Salmonella typhi identified in the primary screen. [Related pubchem assays: 1850, 1864, 1985 ]; format: functional
[9] = biological target: Cysteine protease ATG4B (Homo sapiens, UniProt Q9Y4P1); format: functional;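 further: Fluorescence-based dose-response confirmation assay measuring inhibition of ATG4B activity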
Sequence of Cysteine protease ATG4B (Q9Y4P1 whole entry): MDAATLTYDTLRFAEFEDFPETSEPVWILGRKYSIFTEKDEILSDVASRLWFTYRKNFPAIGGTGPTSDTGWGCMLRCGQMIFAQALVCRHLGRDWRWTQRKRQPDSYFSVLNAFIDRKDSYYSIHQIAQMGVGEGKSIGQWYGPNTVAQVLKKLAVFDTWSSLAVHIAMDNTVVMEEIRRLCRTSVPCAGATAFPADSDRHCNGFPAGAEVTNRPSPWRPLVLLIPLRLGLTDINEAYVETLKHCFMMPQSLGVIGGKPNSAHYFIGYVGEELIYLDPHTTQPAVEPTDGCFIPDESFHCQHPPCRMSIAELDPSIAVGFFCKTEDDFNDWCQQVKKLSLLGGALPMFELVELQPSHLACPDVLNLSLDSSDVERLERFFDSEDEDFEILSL

[10] = biological target: Phospholipase A2 (Homo sapiens, UniProt P04054); format: functional;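 further: confirmatory dose-response counterscreen on phospholipase A2, testing hits that came from an ultra-high-throughput screen for ATG4B inhibitors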
Sequence of Phospholipase A2 (P04054 whole entry, the tested form may be a part): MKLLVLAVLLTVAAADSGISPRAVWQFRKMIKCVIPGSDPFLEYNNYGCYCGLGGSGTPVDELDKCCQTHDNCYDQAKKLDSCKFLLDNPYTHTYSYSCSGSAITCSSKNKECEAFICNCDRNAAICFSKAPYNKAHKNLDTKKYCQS

[11] = luciferase reporter signal reduction – luminescence, H4-C neuroglioblastoma cells, dose response (AID 2458); format: functional, cell-based;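 further: H4 neuroglioblastoma cells stably carrying a luciferase reporter gene fusion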
[12] = cells; format: functional, cell-based
[13] = Luminescence Cell-Based Dose Response HTS to Identify Inhibitors of 5'UTR Stem-Loop Driven Prion Protein mRNA Translation in H4 Neuroglioblastoma Cells. [Related pubchem assays: 1827 (Project Summary), 1813 (Primary HTS)]; format: functional
[14] = alpha-synuclein stem-loop luciferase translation blockers – H4 neuroglioma cells, luminescence, confirmation (AID 1988); format: functional, cell-based
[15] = alpha-synuclein stem-loop translation blockers – luminescence, H4 neuroglioblastoma cells, dose confirmation, confirmation (AID 2454); format: functional, cell-based;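 further: H4 neuroglioblastoma cells carrying an alpha-synuclein 5'UTR luciferase reporter; potency for inhibition of the luciferase signal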
[16] = cells; format: functional, cell-based; remark: listed apart in the source
[17] = rise of 2N DNA cells, HeLa – IC50, dose response (AID 1117349); format: functional, cell-based
[18] = rise of 4N DNA cells, HeLa – IC50, dose response (AID 1117351); format: functional, cell-based
[19] = luciferase reporter signal suppression in cells – H4 neuroglioma cells, luminescence, dose response (AID 1990); format: functional, cell-based
[20] = biological target: Luciferin 4-monooxygenase (Photinus pyralis, UniProt P08659); assay: Counter Screen for Luciferase-based Assay Positives. [Related pubchem assays: 620, 618, 411 ]
Sequence of Luciferin 4-monooxygenase (P08659 whole entry): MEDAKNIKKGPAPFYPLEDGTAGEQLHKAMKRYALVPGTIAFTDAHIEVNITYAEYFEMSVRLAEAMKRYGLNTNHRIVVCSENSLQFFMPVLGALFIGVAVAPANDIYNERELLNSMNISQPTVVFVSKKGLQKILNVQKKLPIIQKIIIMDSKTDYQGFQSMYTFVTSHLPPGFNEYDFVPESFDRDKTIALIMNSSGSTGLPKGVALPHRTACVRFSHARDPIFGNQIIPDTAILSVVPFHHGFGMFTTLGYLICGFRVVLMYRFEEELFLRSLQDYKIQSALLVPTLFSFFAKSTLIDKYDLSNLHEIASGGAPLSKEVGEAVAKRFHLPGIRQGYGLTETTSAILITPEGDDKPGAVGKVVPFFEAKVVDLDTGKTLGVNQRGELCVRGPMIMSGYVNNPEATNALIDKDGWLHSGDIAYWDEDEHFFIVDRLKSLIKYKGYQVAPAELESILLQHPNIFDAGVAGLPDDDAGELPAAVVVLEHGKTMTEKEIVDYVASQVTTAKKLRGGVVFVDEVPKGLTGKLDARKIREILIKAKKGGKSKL

[21] = biological target: T2, Heat shock factor protein 1 (Mus musculus, UniProt P38532); assay: decrease of HSF1-responsive luciferase luminescence – cell-based, NIH3T3, dose retest, confirmation (AID 2382); format: functional;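 further: NIH3T3 fibroblasts with HSF1-driven luciferase reporter stressed by proteasome inhibitor MG132; luminescence from HSF1-driven luciferase expression after 8 hours of MG132 stress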
T2 sequence (P38532 whole entry): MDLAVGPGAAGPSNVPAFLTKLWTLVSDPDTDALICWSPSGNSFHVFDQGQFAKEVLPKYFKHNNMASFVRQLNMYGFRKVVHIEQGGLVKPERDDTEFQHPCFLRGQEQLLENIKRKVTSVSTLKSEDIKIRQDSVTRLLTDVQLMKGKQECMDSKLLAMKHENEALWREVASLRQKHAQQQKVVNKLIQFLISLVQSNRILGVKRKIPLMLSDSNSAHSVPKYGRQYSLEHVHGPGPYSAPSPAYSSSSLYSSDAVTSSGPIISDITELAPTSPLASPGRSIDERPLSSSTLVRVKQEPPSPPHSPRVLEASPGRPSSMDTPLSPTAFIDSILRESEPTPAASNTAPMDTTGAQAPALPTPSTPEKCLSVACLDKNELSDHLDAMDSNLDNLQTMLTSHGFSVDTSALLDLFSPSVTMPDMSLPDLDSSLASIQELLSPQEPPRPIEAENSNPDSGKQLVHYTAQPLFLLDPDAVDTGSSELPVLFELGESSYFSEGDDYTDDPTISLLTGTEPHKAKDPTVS

[22] = microbe, parasite or virus in culture; format: functional; details: Mycobacterium tuberculosis
[23] = test system: HT-1080; assay: HT1080 cell viability loss – fluorescence readout (AID 620); format: functional, cell-based; details: Homo sapiens
[24] = biological target: Sphingosine 1-phosphate receptor 4 (Homo sapiens, UniProt O95977); assay: Fluorescence dose response cell-based high throughput screening assay for antagonists of the Sphingosine 1-Phosphate Receptor 4 (S1P4). [Related pubchem assays: 1524 (Confirmation in triplicates.), 1510 (Primary screen.)]; format: functional
Sequence of Sphingosine 1-phosphate receptor 4 (O95977 whole entry): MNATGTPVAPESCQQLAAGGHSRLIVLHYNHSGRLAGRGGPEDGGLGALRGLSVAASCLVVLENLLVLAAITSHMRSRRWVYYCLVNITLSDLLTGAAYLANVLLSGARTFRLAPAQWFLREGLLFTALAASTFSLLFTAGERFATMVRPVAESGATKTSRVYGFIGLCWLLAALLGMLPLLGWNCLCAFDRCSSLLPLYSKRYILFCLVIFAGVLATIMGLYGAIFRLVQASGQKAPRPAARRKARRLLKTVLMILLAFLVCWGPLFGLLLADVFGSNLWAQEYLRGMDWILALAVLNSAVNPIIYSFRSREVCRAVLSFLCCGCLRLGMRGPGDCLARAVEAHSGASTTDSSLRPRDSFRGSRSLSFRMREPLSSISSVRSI

[25] = biological target: Sphingosine 1-phosphate receptor 1 (Homo sapiens, UniProt P21453); format: functional;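 further: Tango beta-arrestin reporter U2OS cells stimulated with S1P near its EC80; inhibitor potency meaning antagonism of receptor activation by the natural agonist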
Sequence of Sphingosine 1-phosphate receptor 1 (P21453 whole entry, the tested form may be a part): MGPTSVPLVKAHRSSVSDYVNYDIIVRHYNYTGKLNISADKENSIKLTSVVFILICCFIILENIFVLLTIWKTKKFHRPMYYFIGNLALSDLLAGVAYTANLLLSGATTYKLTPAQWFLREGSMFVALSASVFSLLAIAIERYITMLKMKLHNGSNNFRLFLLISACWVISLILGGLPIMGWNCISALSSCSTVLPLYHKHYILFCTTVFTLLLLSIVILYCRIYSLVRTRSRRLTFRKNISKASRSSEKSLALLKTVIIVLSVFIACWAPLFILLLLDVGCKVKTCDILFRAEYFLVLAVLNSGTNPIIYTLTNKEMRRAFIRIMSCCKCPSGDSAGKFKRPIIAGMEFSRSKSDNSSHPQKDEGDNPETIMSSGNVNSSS

[26] = test system: CHO; assay: CHO cell viability loss, potency – luminescence, cytotoxicity control for TLR9-MyD88 binding inhibitor project, dose response (AID 588339); format: functional, cell-based, hamster; details: Cricetulus griseus;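 further: CHO cells stably coexpressing TLR9 and MyD88 fusions from primary screen; compound exposure lasted 48 hours before viability readout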
[27] = biological target: T3, High affinity choline transporter 1 (Homo sapiens, UniProt Q9GZV3); assay: human choline transporter blockers, potency – cell-based, 5-point CRC, membrane potential dye, dose response (AID 504840); format: functional
T3 sequence (Q9GZV3 whole entry): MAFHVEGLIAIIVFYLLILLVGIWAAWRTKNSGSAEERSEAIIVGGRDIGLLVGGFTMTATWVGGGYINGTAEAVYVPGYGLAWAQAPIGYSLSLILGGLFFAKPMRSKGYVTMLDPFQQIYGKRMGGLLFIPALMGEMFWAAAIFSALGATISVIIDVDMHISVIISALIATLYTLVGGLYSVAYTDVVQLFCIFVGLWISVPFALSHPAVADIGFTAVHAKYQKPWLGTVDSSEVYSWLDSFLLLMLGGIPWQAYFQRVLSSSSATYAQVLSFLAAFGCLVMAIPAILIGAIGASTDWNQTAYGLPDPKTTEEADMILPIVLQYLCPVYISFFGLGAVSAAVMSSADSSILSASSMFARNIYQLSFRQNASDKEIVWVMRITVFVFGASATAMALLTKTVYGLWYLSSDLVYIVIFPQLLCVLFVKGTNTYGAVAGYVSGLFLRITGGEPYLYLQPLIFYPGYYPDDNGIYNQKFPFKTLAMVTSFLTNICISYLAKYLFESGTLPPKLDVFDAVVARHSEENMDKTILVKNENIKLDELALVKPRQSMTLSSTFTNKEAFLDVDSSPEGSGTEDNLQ

[28] = biological target: T4, Protein RecA (Mycobacterium tuberculosis, UniProt P9WHJ3); assay: Fluorescence Cell-Free Homogeneous Dose Retest to Identify Inhibitors of RecA-Intein Splicing Activity. [Related pubchem assays (depositor defined):AID2097, AID2223, AID489010, AID492950]; format: functional
T4 sequence (P9WHJ3 whole entry): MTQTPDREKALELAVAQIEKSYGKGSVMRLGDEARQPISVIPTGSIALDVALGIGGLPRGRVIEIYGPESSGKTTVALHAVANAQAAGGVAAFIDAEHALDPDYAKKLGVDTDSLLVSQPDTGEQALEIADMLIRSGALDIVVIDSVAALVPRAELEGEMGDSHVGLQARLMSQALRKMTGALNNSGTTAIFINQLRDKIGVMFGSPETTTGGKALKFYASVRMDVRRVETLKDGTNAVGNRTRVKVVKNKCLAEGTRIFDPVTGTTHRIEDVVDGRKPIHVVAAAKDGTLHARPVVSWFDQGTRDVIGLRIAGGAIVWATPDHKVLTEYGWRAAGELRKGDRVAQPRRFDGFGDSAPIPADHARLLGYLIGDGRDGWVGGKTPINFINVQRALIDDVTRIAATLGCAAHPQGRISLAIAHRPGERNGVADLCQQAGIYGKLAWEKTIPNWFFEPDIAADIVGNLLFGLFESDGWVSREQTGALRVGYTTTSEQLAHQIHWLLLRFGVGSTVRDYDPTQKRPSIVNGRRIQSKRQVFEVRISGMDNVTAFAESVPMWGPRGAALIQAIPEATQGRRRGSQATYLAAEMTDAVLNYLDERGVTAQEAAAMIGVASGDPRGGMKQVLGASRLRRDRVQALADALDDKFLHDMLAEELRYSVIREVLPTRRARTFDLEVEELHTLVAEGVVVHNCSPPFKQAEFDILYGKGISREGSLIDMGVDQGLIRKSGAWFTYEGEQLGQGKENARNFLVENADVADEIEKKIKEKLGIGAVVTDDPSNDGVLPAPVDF

[29] = biological target: T3, High affinity choline transporter 1; assay: human choline transporter blockers, potency – cell-based, 10-point CRC, membrane potential dye, dose response (AID 588401); format: functional;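 further: membrane potential dye fluorescence of choline-evoked depolarization via CHT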
[30] = reduction of Shn3 3'UTR-driven luciferase in osteoblasts – cell-based, Clone20 osteoblasts, firefly luciferase, cherry-picked, dose response (AID 624132); format: functional;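 further: firefly luciferase luminescence from reporter carrying the Shn3 3'UTR in osteoblasts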
[31] = loss of viability in HepG2 cells – cell-based, CellTiter-Glo, cherry-picked, cytotoxicity control for Shn3 inhibitor project, dose response (AID 624134); format: functional
[32] = non-specific 3'UTR reporter inhibition in Clone20-Shn3RL – cell-based, Renilla luciferase, cherry-picked, counter-screen for Shn3 inhibitor project, dose response (AID 624133); format: functional
[33] = biological target: T5, Estrogen receptor (Homo sapiens, UniProt P03372); assay: blockers of SRC-3 recruitment to ERα – biochemical, ELISA, streptavidin-HRP readout, orthogonal assay, confirmation (AID 1079)
T5 sequence (P03372 whole entry): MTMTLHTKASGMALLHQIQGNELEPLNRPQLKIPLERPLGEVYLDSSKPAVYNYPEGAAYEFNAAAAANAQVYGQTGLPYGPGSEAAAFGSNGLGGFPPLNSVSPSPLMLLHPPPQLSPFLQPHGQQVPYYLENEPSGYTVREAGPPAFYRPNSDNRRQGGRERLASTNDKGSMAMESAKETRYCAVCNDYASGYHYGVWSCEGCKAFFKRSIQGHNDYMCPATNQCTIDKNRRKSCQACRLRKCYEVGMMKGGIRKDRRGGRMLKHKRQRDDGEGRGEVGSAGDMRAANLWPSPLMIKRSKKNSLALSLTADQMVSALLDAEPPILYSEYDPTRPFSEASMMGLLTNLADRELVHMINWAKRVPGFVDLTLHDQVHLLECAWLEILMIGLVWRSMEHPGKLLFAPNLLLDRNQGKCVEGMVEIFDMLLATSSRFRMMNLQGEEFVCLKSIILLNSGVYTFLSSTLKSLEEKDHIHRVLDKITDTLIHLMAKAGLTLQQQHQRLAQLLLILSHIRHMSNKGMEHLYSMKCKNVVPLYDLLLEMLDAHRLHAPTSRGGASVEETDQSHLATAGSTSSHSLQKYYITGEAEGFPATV

With `Cc1cc(C(=O)OC(C(=O)Nc2cccc(C(F)(F)F)c2)c2ccccc2)c(C)o1` (stereo not given) the EC50 [1] was 22.6 µM (active), the EC50 [2] was > 500 µM (not active) and the EC50 [3] was 4.11 µM (active). The EC50 [4] was > 150 µM (not active).
In the case of `Oc1ccccc1C(c1cc2c(cc1O)OCO2)N1CCOCC1` (stereo not given), the IC50 [5] is reported as 6.96 µM (not active).
In the case of `Cn1cccc1/C=C1\SC(Nc2ccccc2)=NC1=O`, the EC50 [6] is reported as > 5.53 µM (active) and the EC50 [7] is reported as > 49.7 µM (not active).
With `O=c1c2ccccc2nc(-c2ccoc2)n1CCc1ccccc1` the EC50 [8] was > 50 µM (active), the IC50 [9] was 14.3 µM (active) and the IC50 [10] was 13.9 µM (active).
With `COC(=O)Nc1nc2cc(C(=O)c3cccs3)ccc2[nH]1` [NOCODAZOLE] the EC50 [11] was 0.195 µM (active), the EC50 [12] was 0.203 µM (active) and the EC50 [13] was < 0.1 µM (active). The EC50 [14] was < 0.1 µM (active), the EC50 [15] was 0.183 µM (active) and the IC50 [16] was > 67.5 µM (inactive). For the same compound, the IC50 [17] was 0.0174 µM (active) and the IC50 [18] was 0.0176 µM (active).
For `CN1/C(=C/C(=O)c2nc(S(C)(=O)=O)ncc2Cl)C(C)(C)c2ccccc21`, the EC50 [19] was > 120 µM (not active), the EC50 [20] was 1.14 µM (active) and the EC50 [13] was 10.1 µM (active). The EC50 [21] was 4.37 µM (active), the EC50 [14] was 9.18 µM (active) and the CC50 [22] was 19.5 µM (active). The EC50 [23] was 17.8 µM (active), the IC50 [24] was 1.31 µM (active) and the IC50 [25] was 11.9 µM (not active). The IC50 [26] was 2.72 µM (active), the IC50 [27] was 4.81 µM (active) and the EC50 [28] was 1.81 µM (active). The IC50 [29] was 3.81 µM (active), the AC50 [30] was 5.21 µM (active) and the AC50 [31] was 12.2 µM (active). The AC50 [32] was 8.57 µM (active).
With `O=C(CCCCCn1c(=S)[nH]c2ccccc2c1=O)N1CCC(Nc2ccccc2)CC1` the IC50 [33] was 0.18 µM (not active).
